{
  "source": "patent US20080153824A1",
  "about": "“Method for Controlling Fungal Diseases in Leguminous Plants” (BASF Aktiengesellschaft, priority 2004, published 2008)",
  "system": "soybean rust",
  "test": "Seed dressing trial, activity against soybean rust",
  "format": "in vivo, soybean rust on soybean plants (cultivar BRS 133)",
  "conditions": "soybean seeds cultivar BRS 133 treated with 1000 g orysastrobin/100 kg of seed (SC, 250 g/l, liquid dressing); inoculated 3 weeks after sowing; assessed 11 days after inoculation; untreated-seed plants 79% infected",
  "procedure": "Seed dressing trial, activity against soybean rust\nSoybean seeds of the cultivar BRS 133 were treated with 1000 g of orysastrobin/100 kg of seed, formulated as SC with 250 g of active compound per liter, as liquid dressing, then sown into pots and cultivated in a greenhouse at about 22° C. 3 weeks after sowing, the plants were inoculated with soybean rust, incubated at 100% relative atmospheric humidity for 24 hours and then again cultivated in the greenhouse. At the time of inoculation, the first pair of leaves and one subsequent leaf had developed. The infection of the leaves was assessed 11 days after the inoculation.",
  "data": [
    {"compound": "CNC(=O)/C(=N/OC)c1ccccc1CO/N=C(C)/C(=N/OC)C(C)=NOC", "note": "(stereo in doubt) [orysastrobin, (2E)-2-(methoxyimino)-2-{2-[(3E,5E,6E)-5-(methoxyimino)-4,6-dimethyl-2,8-dioxa-3,7-diazanona-3,6-dien-1-yl]phenyl}-N-methylacetamide]", "values": [
      {"measurement": "total infection of the leaves", "result": "less than 1%"}
    ]}
  ]
}
